Measurements published in patent US20240216412A1, “OXIDIZED NICOTINAMIDE ADENINE DINUCLEOTIDE (NAD+) PRECURSOR TREATMENT FOR HEART FAILURE ALLEVIATION INDEPENDENT OF MITOCHONDRIAL PROTEIN DEACETYLATION” (University of Washington, priority 2022, published 2024).

Tested on: mitochondrial protein acetylation; Mrpp2, mt-Cox1, mt-Nd1 protein levels
Experiment: Western blot of cardiac mitochondrial protein acetylation and of Mrpp2, mt-Cox1, mt-Nd1
Format: in vivo, mouse
Method: Western blot. For Western blot procedures cardiac tissues were homogenized with RIPA buffer (ThermoScientific Pierce RIPA Buffer #89900) and protease inhibitors (Roche Cat. No. 11-836-170-001) using bullet blender at 4° C. for 10 minutes. Protein concentrations of supernatants were collected after centrifugation and quantified using Pierce™ BCA® Protein Assay Kits and Reagents (#23225). Protein lysates in Lammeli sample buffer were loaded to 10% SDS-PAGE, transferred to PVDF membrane and blocked with 5% BSA in TSBT. Specific proteins were detected by specific antibodies listed above and corresponding secondary antibodies. Signals were visualized by HRP derived chemiluminescence (Amersham ECL Western Blotting Detection System #RPN2106) and film. Protein levels were quantified by Image-J.
Mitochondrial Isolation from cardiac tissue. Hearts were excised from mice, the aortas and atria were removed. Heart tissues were rinsed briefly in ice-cold mitochondria isolation medium (MIM) (70 mM sucrose, 220 mM mannitol, 5 mM MOPS, 1 mM EDTA, 0.025% fatty acid-free BSA, pH 7.4 with 5M KOH) to remove residual blood. Tissues were minced on ice and resuspended in fresh MIM, followed by trypsin digestion (10 ug/ml) and incubated on ice for 10 min. Trypsin digestion was stopped by the addition of trypsin inhibitor (0.5 mg/ml) and additional BSA (1 mg/ml) to MIM. The tissue pellets were resuspended in fresh MIM containing 1 mg/ml BSA, and transferred to a Teflon-glass tube and homogenized on ice with a Teflon pestle. The homogenates were centrifuged for 10 min at 800×g at 4° C. The supernatants were collected and centrifuged for 10 min at 8,000×g at 4° C. The supernatant was discarded and the mitochondrial pellets were resuspended in MIM to wash. The resuspension was centrifuged for 10 min at 8,000×g at 4° C., and the supernatant discarded. The mitochondrial pellet was resuspended to a concentrated volume for protein quantification by BCA Assay (Pierce).
Antibodies. Acetylated lysine antibody (Cell Signaling 9441s), Mrpp2 (Hsd17b10, ERAB) from Proteintech catalog number 10648-1-AP, Mrrp1 (Trmt10c) from Proteintech catalog number 29087-1-AP, Mt-C01 from Abcam [1D6E1A8] (ab14705), and Mt-Nd1 from Santa Cruz (C-18) catalog sc-20493, RXRα (Cell Signaling D6H10) Rabbit mAb, SirT3 (Cell Signaling D22A3) Rabbit mAb, ATP5B (E-1) Santa Cruz Biotechnology sc-55597.

Compound: NC(=O)c1ccc[n+]([C@@H]2O[C@H](CO)[C@@H](O)[C@H]2O)c1 [NR, Nicotinamide riboside chloride]
- Mitochondrial protein acetylation (NR treated Sirt3Ko mice): no change
- Mrpp2 protein level (NR treated TAC hearts): normalization
- Protein levels of mt-Cox1 and mt-Nd1 (TAC hearts that received NR): preserved
- Mitochondrial protein hyperacetylation (WT control mice after TAC): reversed the protein hyperacetylation
